From patent US20090176817A1, “Method of Treatment of Diarrhea-Predominant Irritable Bowel Syndrome in a Subject” (priority 2005, published 2009)

System: diarrhea-predominant IBS subjects
Assay: Study S241.3.006: weekly diary questions on adequate relief
Assay type: in vivo, human
Settings: for Number of months a subject was a responder: One month (Abdominal pain/discomfort) / Number of months a subject was a responder: One month (Abnormal bowel habits) / Number of months a subject was a responder: One month (IBS symptoms) / Number of months a subject was a responder: Three months (Abdominal pain/discomfort) / Number of months a subject was a responder: Three months (Abnormal bowel habits) / Number of months a subject was a responder: Three months (IBS symptoms) / Number of months a subject was a responder: Two months (Abdominal pain/discomfort) / Number of months a subject was a responder: Two months (Abnormal bowel habits) / Number of months a subject was a responder: Two months (IBS symptoms) / Number of months a subject was a responder: Zero months (Abdominal pain/discomfort) / Number of months a subject was a responder: Zero months (Abnormal bowel habits) / Number of months a subject was a responder: Zero months (IBS symptoms): monthly LOCF
Description: The study was conducted in 129 study centers in the United States. At total of 2080 subjects consented to participate, and 711 subjects were randomized. A total of 692 subjects were analyzed for efficacy and 701 subjects were analyzed for safety. Diagnosis and main criteria for inclusion were IBS subjects satisfying the Rome I criteria (1992); the diarrhea predominant sub-population of the Rome II criteria; and a minimum abdominal pain/discomfort, stool frequency and consistency determined during the run-in period. Subjects were treated with cilansetron 2 mg tablets given orally TID or matching placebo tablets given orally TID for 12 weeks double-blind treatment.
The primary efficacy parameter was the number of months that a subject was a responder for IBS symptoms (abdominal pain, abdominal discomfort, abnormal bowel habits) over the 12-week treatment period. A responder for a month (monthly responder) was defined as a subject who answered the weekly question with “yes” at least twice for that month.
Studies S24 1.3.OO6, S24 1.3.0 1 1, and S24 1.3.009 used the following efficacy measurements: • The subjects answered the following three questions with “yes” or “no” using a phone diary at the end of each week: • a) During the last week, did you experience adequate relief of your IBS symptoms, such as abdominal pain, abdominal discomfort, abnormal bowel habits? • b) During the last week, did you experience adequate relief of your abdominal pain and/or discomfort? • c) During the last week, did you experience adequate relief of your abnormal bowel habits? • The subjects rated the following symptoms using the phone diary at the end of each day: • abdominal pain/discomfort (five-point scale); • stool consistency (seven-point Bristol Stool Scale); • stool frequency (number of bowel movements each day); • urgency (five-point scale); • straining (yes or no); • feeling of incomplete defecation (yes or no); • bloating or feeling of abdominal distension (five-point scale). • In Studies S241 A006 and S241.3.009, subjects completed the IBS-QOL Survey at Baseline (Day 1) and at the end of treatment. In Study S24 1.3.0 1 1, subjects completed the IBS-QOL Survey at Baseline (Day 1), at the end of the three-month treatment period, and at the end of rerandomized treatment.
In all three pivotal efficacy studies, the primary and main secondary efficacy parameters were based on the weekly diary questions on adequate relief and included the following: • 1. Number of months (one month equals four weeks) that a subject was a responder for the weekly diary questions on adequate relief. A responder for a month (monthly responder) was defined as a subject who answered the weekly question with “yes” at least twice for that month. For Studies S241.3.006 and S241.3.011, the primary efficacy parameter was the number of months that a subject was a responder for IBS symptoms during the 12-week treatment period. The two main secondary efficacy parameters were the number of months that a subject was a responder for abdominal pain/discomfort and abnormal bowel habits during the 12-week treatment period. For Study S241.3.009, the number of months that a subject was a responder for the weekly diary questions on adequate relief during Months 1 to 3 (the first 12 weeks) and Months 1 to 6 (24-week) was an additional key secondary efficacy parameter. • 2. Overall responder rate for the weekly diary questions on adequate relief. A responder was defined as a subject who answered the weekly question with “yes” for at least half of the answers available with a minimum of four weeks treatment duration. If a subject had less than four weeks treatment duration, the subject was considered a non-responder. The overall responder rate was the percentage of responders within a treatment group. For Study S241.3.009, the primary efficacy parameter was the overall responder rate for IBS symptoms during the 26-week treatment period. […]

[1] = Duration of IBS: >24 months to ≦48 months, 2 mg TID, observed case, ITT
[2] = Duration of IBS: >24 months to ≦48 months, three-month treatment period, ITT, 2 mg TID
[3] = Duration of IBS: >48 months to ≦120 months, 2 mg TID, observed case, ITT
[4] = Duration of IBS: >48 months to ≦120 months, three-month treatment period, ITT, 2 mg TID
[5] = Duration of IBS: >120 months, 2 mg TID, observed case, ITT
[6] = Duration of IBS: >120 months, three-month treatment period, ITT, 2 mg TID
[7] = Duration of IBS: ≦24 months, 2 mg TID, observed case, ITT

Structure (SMILES): Cc1nccn1C[C@H]1CCc2c(c3cccc4c3n2CCC4)C1=O [Cilansetron, (R)-(−)-4,5,6,8,9,10-hexahydro-10-[(2-methyl-1H-imidazol-1-yl)methyl]-11H-pyrido-[3,2,1-jk]-carbazol-11-one]
- Overall responder rate, adequate relief of abnormal bowel habits (Baseline severity of IBS: severe, three-month treatment period, observed case, ITT, 2 mg TID): 90 (46) n (%)
- Overall responder rate, abdominal pain/discomfort (Caucasians): 52%
- Number of subjects who were responders during the three-month treatment period: Adequate relief of IBS symptoms [1]: 20 (47) n (%)
- Number of subjects who were responders during the three-month treatment period: Adequate relief of abdominal pain/discomfort [1]: 22 (51) n (%)
- Number of subjects who were responders during the three-month treatment period: Adequate relief of abnormal bowel habits [1]: 20 (47) n (%)
- Number of months a subject was a responder: One month (Abdominal pain/discomfort) [2]: 8 (19) n (%)
- Number of months a subject was a responder: One month (Abnormal bowel habits) [2]: 10 (23) n (%)
- Number of months a subject was a responder: One month (IBS symptoms) [2]: 12 (28) n (%)
- Number of months a subject was a responder: Three months (Abdominal pain/discomfort) [2]: 15 (35) n (%)
- Number of months a subject was a responder: Three months (Abnormal bowel habits) [2]: 13 (30) n (%)
- Number of months a subject was a responder: Three months (IBS symptoms) [2]: 14 (33) n (%)
- Number of months a subject was a responder: Two months (Abdominal pain/discomfort) [2]: 6 (14) n (%)
- Number of months a subject was a responder: Two months (Abnormal bowel habits) [2]: 7 (16) n (%)
- Number of months a subject was a responder: Two months (IBS symptoms) [2]: 4 (9) n (%)
- Number of months a subject was a responder: Zero months (Abdominal pain/discomfort) [2]: 14 (33) n (%)
- Number of months a subject was a responder: Zero months (Abnormal bowel habits) [2]: 13 (30) n (%)
- Number of months a subject was a responder: Zero months (IBS symptoms) [2]: 13 (30) n (%)
- Number of subjects who were responders during the three-month treatment period: Adequate relief of IBS symptoms [3]: 54 (52) n (%)
- Number of subjects who were responders during the three-month treatment period: Adequate relief of abdominal pain/discomfort [3]: 58 (56) n (%)
- Number of subjects who were responders during the three-month treatment period: Adequate relief of abnormal bowel habits [3]: 54 (52) n (%)
- Number of months a subject was a responder: One month (Abdominal pain/discomfort) [4]: 12 (12) n (%)
- Number of months a subject was a responder: One month (Abnormal bowel habits) [4]: 12 (12) n (%)
- Number of months a subject was a responder: One month (IBS symptoms) [4]: 15 (14) n (%)
- Number of months a subject was a responder: Three months (Abdominal pain/discomfort) [4]: 40 (38) n (%)
- Number of months a subject was a responder: Three months (Abnormal bowel habits) [4]: 37 (36) n (%)
- Number of months a subject was a responder: Three months (IBS symptoms) [4]: 35 (34) n (%)
- Number of months a subject was a responder: Two months (Abdominal pain/discomfort) [4]: 18 (17) n (%)
- Number of months a subject was a responder: Two months (Abnormal bowel habits) [4]: 19 (18) n (%)
- Number of months a subject was a responder: Two months (IBS symptoms) [4]: 19 (18) n (%)
- Number of months a subject was a responder: Zero months (Abdominal pain/discomfort) [4]: 34 (33) n (%)
- Number of months a subject was a responder: Zero months (Abnormal bowel habits) [4]: 36 (35) n (%)
- Number of months a subject was a responder: Zero months (IBS symptoms) [4]: 35 (34) n (%)
- Number of subjects who were responders during the three-month treatment period: Adequate relief of IBS symptoms [5]: 69 (47) n (%)
- Number of subjects who were responders during the three-month treatment period: Adequate relief of abdominal pain/discomfort [5]: 72 (49) n (%)
- Number of subjects who were responders during the three-month treatment period: Adequate relief of abnormal bowel habits [5]: 73 (50) n (%)
- Number of months a subject was a responder: One month (Abdominal pain/discomfort) [6]: 15 (10) n (%)
- Number of months a subject was a responder: One month (Abnormal bowel habits) [6]: 14 (10) n (%)
- Number of months a subject was a responder: One month (IBS symptoms) [6]: 13 (9) n (%)
- Number of months a subject was a responder: Three months (Abdominal pain/discomfort) [6]: 59 (40) n (%)
- Number of months a subject was a responder: Three months (Abnormal bowel habits) [6]: 57 (39) n (%)
- Number of months a subject was a responder: Three months (IBS symptoms) [6]: 51 (35) n (%)
- Number of months a subject was a responder: Two months (Abdominal pain/discomfort) [6]: 19 (13) n (%)
- Number of months a subject was a responder: Two months (Abnormal bowel habits) [6]: 19 (13) n (%)
- Number of months a subject was a responder: Two months (IBS symptoms) [6]: 22 (15) n (%)
- Number of months a subject was a responder: Zero months (Abdominal pain/discomfort) [6]: 53 (36) n (%)
- Number of months a subject was a responder: Zero months (Abnormal bowel habits) [6]: 56 (38) n (%)
- Number of months a subject was a responder: Zero months (IBS symptoms) [6]: 60 (41) n (%)
- Number of subjects who were responders during the three-month treatment period: Adequate relief of IBS symptoms [7]: 25 (49) n (%)
- Number of subjects who were responders during the three-month treatment period: Adequate relief of abdominal pain/discomfort [7]: 27 (53) n (%)
